Results taken from PubChem BioAssay (NCI).
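Assay format: 96-well plates, 48-hour exposure. The concentration for 50% growth inhibition is given as GI50. TGI: concentration producing complete growth inhibition.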

What was measured:
Assay in all cases: NCI-60 cell line screen, 48 h
MDA-MB-231 breast = test system: MDA-MB-231 breast
NCI-H522 lung = test system: NCI-H522 lung
RXF 393 renal = test system: RXF 393 renal
HOP-62 NSCLC = test system: HOP-62 NSCLC
T-47D breast = test system: T-47D breast
IGROV1 ovarian = test system: IGROV1 ovarian
DU-145 prostate = test system: DU-145 prostate
UACC-257 melanoma = test system: UACC-257 melanoma
SNB-75 CNS = test system: SNB-75 CNS
HCT-15 colon = test system: HCT-15 colon

SMILES | GI50 (MDA-MB-231 breast) | TGI (MDA-MB-231 breast) | GI50 (NCI-H522 lung) | TGI (NCI-H522 lung) | GI50 (RXF 393 renal) | TGI (RXF 393 renal) | GI50 (HOP-62 NSCLC) | TGI (HOP-62 NSCLC) | GI50 (T-47D breast) | TGI (T-47D breast) | GI50 (IGROV1 ovarian) | TGI (IGROV1 ovarian) | GI50 (DU-145 prostate) | TGI (DU-145 prostate) | GI50 (UACC-257 melanoma) | TGI (UACC-257 melanoma) | GI50 (SNB-75 CNS) | TGI (SNB-75 CNS) | GI50 (HCT-15 colon) | TGI (HCT-15 colon)
c1ccc(CC(NCCNC(Cc2ccccc2)c2ccccc2)c2ccccc2)cc1 (centres undefined) | 0.331 µM | 1.24 µM | 0.32 µM | 1.06 µM | 0.26 µM | 0.705 µM | 1.17 µM | 2.86 µM | 0.243 µM | 0.693 µM | 0.605 µM | 2.84 µM | 0.395 µM | 1.87 µM | 1.02 µM | 2.4 µM | 1.43 µM | 4.56 µM | 0.463 µM | 1.64 µM
O=C(Nc1ccc(Cl)cc1)Nc1ccccc1CNc1nc(Nc2ccc(OCCN3CCCC3)cc2)ncc1Cl | 0.888 µM | 1.84 µM | 1.18 µM | 2.94 µM | 0.898 µM | 1.76 µM | 1.28 µM | 3.88 µM | 6.47 µM | 18 µM | 1.62 µM | 5.72 µM | 1.22 µM | 2.79 µM | 0.993 µM | 2 µM | 2.1 µM | 9.28 µM | 1.01 µM | 2.6 µM
COc1ccc2[nH]c(-c3ccccc3)cc2c1 | 61.8 µM | > 100 µM | 73.9 µM | > 100 µM | > 100 µM | > 100 µM | > 100 µM | > 100 µM | 19.3 µM | > 100 µM | > 100 µM | > 100 µM | > 100 µM | > 100 µM | > 100 µM | > 100 µM | > 100 µM | > 100 µM | > 100 µM | > 100 µM
C=CC(=O)Nc1cccc(Nc2nc(Nc3ccc(OCCOC(F)F)cc3)ncc2F)c1 | 5.02 µM | 51.1 µM | 1.88 µM | 7.44 µM | 1.09 µM | 4.42 µM | 2.38 µM | 17.2 µM | 1.83 µM | 9.98 µM | 1.88 µM | 9.61 µM | 1.96 µM | > 100 µM | 5.56 µM | 47.5 µM | 0.848 µM | 5 µM | 1.97 µM | > 100 µM
COc1ccc(-c2cc(/C=C/C(=O)c3cc(OC)c(OC)c(OC)c3)[nH]n2)cc1OC | 2.02 µM | 13.5 µM | 1.33 µM | 2.68 µM | 1.53 µM | 3.16 µM | 1.45 µM | 3.59 µM | 1.01 µM | 3.76 µM | 2.72 µM | 8.61 µM | 1.83 µM | 4.12 µM | 1.79 µM | 3.8 µM | 1.31 µM | 3.77 µM | 1.19 µM | 3.85 µM
COc1cc2nnn3c4ncccc4c(N=O)c3c2cc1OC | 4.09 µM | > 53.9 µM | 3.04 µM | 28 µM | 0.989 µM |  | 6.71 µM | 16.8 µM | 0.317 µM | > 29.9 µM | 0.896 µM | > 37 µM | 3.02 µM | 12.5 µM | 8.56 µM | > 100 µM | 2.59 µM | 40.1 µM | 2.2 µM | 21.1 µM
O=c1oc2ccc(F)cc2c(=O)n1-c1ccc(Br)cc1F | 0.434 µM | 7.28 µM | 0.363 µM | 9.38 µM | 0.923 µM | 4.66 µM | 1.64 µM | 7.25 µM | 0.651 µM | 7.61 µM | 0.444 µM | 22.7 µM | 0.781 µM | 22.8 µM | 0.528 µM | 7.37 µM | 0.252 µM | 2.79 µM | 1.29 µM | 10.9 µM
Fc1cc(-c2nnc3n2N=C(c2ccc(Cl)cc2Cl)CS3)c(Cl)cc1Cl | 33.7 µM | > 100 µM | 50.8 µM | > 100 µM | 51 µM | > 100 µM | 44.2 µM | > 100 µM | 11.7 µM | 48.5 µM | 50.4 µM | > 100 µM | 49.5 µM | > 100 µM | 86 µM | > 100 µM | > 100 µM | > 100 µM | 38.3 µM | > 100 µM
Cc1n(Cc2ccc3ccccc3c2)c(Cl)c(Cl)[n+]1Cc1ccc2ccccc2c1 | 1.59 µM | 3.09 µM | 1.52 µM | 3.9 µM | 1.66 µM | 3.16 µM | 1.79 µM | 3.81 µM | 2.05 µM | 6.44 µM | 1.39 µM | 2.81 µM | 2.22 µM | 5.26 µM | 1.81 µM | 4.21 µM | 1.16 µM | 2.66 µM | 2.29 µM | 6.52 µM
CCc1cccc(CC)c1/C=C/c1cncc(C(=O)NC)c1 | 13.2 µM | > 25 µM | 8.82 µM | > 23.9 µM | 5.87 µM | 24.8 µM | 9.88 µM | > 25 µM | 11.9 µM | > 25 µM | > 21.7 µM | > 25 µM | 16.5 µM | > 25 µM | > 13.5 µM | > 25 µM | 7.08 µM | > 25 µM | 9.71 µM | > 25 µM
COc1ccc2cc(-c3c(-c4ccncc4)nc(-c4ccc(S(C)=O)cc4C)n3C)ccc2c1 (centres undefined) | > 25 µM | > 25 µM | 10.6 µM | > 25 µM | > 24.2 µM | > 25 µM | 24.7 µM | > 25 µM | 8.78 µM | > 25 µM | 11.1 µM | > 25 µM | > 25 µM | > 25 µM | 14.8 µM | > 25 µM | > 20.8 µM | > 25 µM | 16.7 µM | > 25 µM
COc1ccc(-c2nc3c(c(=O)n2C(C)=O)C(c2ccc(Cl)cc2)c2sc4c(Cl)cccc4c2O3)cc1 (centres undefined) | 0.589 µM | 2.43 µM | 0.259 µM | 1.48 µM | 0.235 µM | 0.675 µM | 0.275 µM | 1.96 µM | 0.326 µM | 2.2 µM | 0.512 µM | 3.12 µM | 0.394 µM | 1.96 µM | 0.776 µM | 3.29 µM | 0.738 µM | 9.98 µM | 0.301 µM | 1.66 µM
